Data: US6531645B1, “RAS/P21 transgenic mouse” (University of South Florida, priority 2000, dated 2003)

System: mammary tumors of MMTV/v-Ha-ras/p21WAF1 (−/−) transgenic mice
Assay: Antitumor efficacy of FTI-2148 in MMTV/v-Ha-ras/p21WAF1 (−/−) transgenic mice
Type: in vivo, mouse
Details: 50 mg/Kg/day by subcutaneous osmotic mini-pump
Protocol: The MMTV/v-Ha-Ras/p21waf(−/−) transgenic mice are generated as described herein. When the three mammary tumors reach 4500 mm^3, 2000 mm^3 and 900 mm^3 (see FIG. 1), the mice are implanted subcutaneously with an osmotic mini-pump that delivers 50 mg/Kg/day of the farnesyltransferase inhibitor FTI-2148 that was designed to block oncogenic H-Ras malignant transformation. […] Thus, within 6 days of drug treatment one skilled in the art can determine whether a drug has antitumor activity.
Tumor Development Monitoring and Sample Collection. The female offspring are monitored weekly for tumors by observation and palpation. Tumor diameters are measured in three dimensions using calipers, and tumor volume is calculated as length x width x height. Samples of tumor and normal tissue are collected in 10% neutral buffered formalin for histopathologic analysis. All surgical and experimental procedures performed on the mice are in accordance the NIH guidelines outlined in the “Guide for Care and Use of Laboratory Animals” (NIH publication 85-23). Animals are autopsied immediately after sacrifice, and external as well as internal organs are grossly examined. Representative tissue samples are obtained from salivary glands, mammary glands, lungs, liver, kidneys, spleen, and Harderian (lacrimal) glands. For general microscopy, tissues are embedded in paraffin, and 3 μm-thick sections are cut and stained with hematoxylin and eosin. Tissues are also processed using either an avidin-biotin complex method or a labeled streptavidin-biotin method after antigen retrieval. […] Negative and positive controls include the omission of the primary antibody and normal or tumor tissues with known high marker expression. p21^WAF1/CIP1 expression is analyzed by immunohistochemistry with an anti-p21 antibody (sc-397-G, Santa Cruz Biotechnology). […]

CSCC[C@H](NC(=O)c1ccc(CNCc2cnc[nH]2)cc1-c1ccccc1C)C(=O)O [FTI-2148]
fate by day 15 of one of the three mammary tumors (day 15): one tumor disappears | tumor volume by day 15 of the two tumors that started out at 4500 mm^3 and 2000 mm^3 (day 15): less than 500 mm^3 | time of treatment within which the tumors start to regress (three mammary tumors of 4500, 2000 and 900 mm^3 at start): ≤ 6 days
